Results reported in patent US20230416232A1, “PYRIMIDINE COMPOUNDS, COMPOSITIONS, AND MEDICINAL APPLICATIONS THEREOF” (Blueprint Medicines Corporation, priority 2020, published 2023).
Structures can show the parent of a compound that is named as a salt. Where two headings read alike, the source gives them in different places.

Columns and labels:
Format in all cases: cell-based
[1] = target: EGFR (A767_dupASV) expressing Ba/F3 stable cell line (Homo sapiens, UniProt P00533, DUP767-769, cells depend on it); test: Cellular proliferation (Alamar Blue) assay, EGFR (A767_dupASV) Ba/F3
Summary of the method: (§1)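 Compound treatment lasted 72 h at 37 °C across a final 10-0.0005 μM range in 3-fold steps; cell growth was measured with Alamar Blue (3 h). Ba/F3 seeded at 15,000 and A431 at 5000 cells/well.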

[2] = target: EGFR (H773insNPH) expressing Ba/F3 stable cell line (Homo sapiens, UniProt P00533, DUP771-773, cells depend on it); test: Cellular proliferation (Alamar Blue) assay, EGFR (H773insNPH) Ba/F3
Method: Cell line details: • 1. EGFR(D770_N771insSVD) expressing Ba/F3 stable cell line • 2. EGFR (A767_dupASV) expressing Ba/F3 stable cell line • 3. A431 cells • 4. EGFR (H773insNPH) expressing Ba/F3 stable cell line • 5. HER2 (A775_G776insYVMA) expressing Ba/F3 stable cell line
• 1. Seed cells at 5000 for A431 and 15,000 cells for Ba/F3 in 100 μL/well in complete media (for A431: DMEM with 10% FBS and for Ba/F3 cells: RPMI with 10% FBS) in 96-well tissue culture plate. Leave outer wells without cells for background measurements. Incubate at 37 degree Celsius in 5% CO2 humidified incubator for 16-18 hours. • 2. Add 0.025 ml of 5X concentration compound dilution or DMSO control. Final compound concentration range is 10-0.0005 μM prepared in 3-fold serial dilutions. Incubate for 72 hr at 37 degree Celsius in 5% CO2 humidified incubator. • 3. Add 0.0125 ml Alamar Blue™ reagent to each well with multi-channel pipette and tap gently on each side of the plate to mix. Incubate for 3 hours at 37 degree Celsius in 5% CO2 humidified incubator. • 4. […] Data analysis was performed using XLfit 5.5.0.5.

[3] = target: EGFR(D770_N771insSVD) expressing Ba/F3 stable cell line (Homo sapiens, UniProt P00533, DUP768-770, cells depend on it); test: Cellular proliferation (Alamar Blue) assay, EGFR(D770_N771insSVD) Ba/F3
Summary of the method: as §1

A431 cells = test: Cellular proliferation (Alamar Blue) assay, A431 cells; settings: Homo sapiens, A-431, 72 h, read-out: A431 IC50
Summary of the method: as §1

[4] = target: HER2 (A775_G776insYVMA) expressing Ba/F3 stable cell line (Homo sapiens, UniProt P04626, DUP772-775, cells depend on it); test: Cellular proliferation (Alamar Blue) assay, HER2 (A775_G776insYVMA) Ba/F3; settings: read-out: YVMA IC50
Summary of the method: as §1

[5] = HER2 (A775_G776insYVMA) Ba/F3 cells, 72 hr, Alamar Blue

HER2 (A775_G776insYVMA) expressing Ba/F3 stable cell line, sequence (P04626 with tags, fused parts or gaps DUP772-775): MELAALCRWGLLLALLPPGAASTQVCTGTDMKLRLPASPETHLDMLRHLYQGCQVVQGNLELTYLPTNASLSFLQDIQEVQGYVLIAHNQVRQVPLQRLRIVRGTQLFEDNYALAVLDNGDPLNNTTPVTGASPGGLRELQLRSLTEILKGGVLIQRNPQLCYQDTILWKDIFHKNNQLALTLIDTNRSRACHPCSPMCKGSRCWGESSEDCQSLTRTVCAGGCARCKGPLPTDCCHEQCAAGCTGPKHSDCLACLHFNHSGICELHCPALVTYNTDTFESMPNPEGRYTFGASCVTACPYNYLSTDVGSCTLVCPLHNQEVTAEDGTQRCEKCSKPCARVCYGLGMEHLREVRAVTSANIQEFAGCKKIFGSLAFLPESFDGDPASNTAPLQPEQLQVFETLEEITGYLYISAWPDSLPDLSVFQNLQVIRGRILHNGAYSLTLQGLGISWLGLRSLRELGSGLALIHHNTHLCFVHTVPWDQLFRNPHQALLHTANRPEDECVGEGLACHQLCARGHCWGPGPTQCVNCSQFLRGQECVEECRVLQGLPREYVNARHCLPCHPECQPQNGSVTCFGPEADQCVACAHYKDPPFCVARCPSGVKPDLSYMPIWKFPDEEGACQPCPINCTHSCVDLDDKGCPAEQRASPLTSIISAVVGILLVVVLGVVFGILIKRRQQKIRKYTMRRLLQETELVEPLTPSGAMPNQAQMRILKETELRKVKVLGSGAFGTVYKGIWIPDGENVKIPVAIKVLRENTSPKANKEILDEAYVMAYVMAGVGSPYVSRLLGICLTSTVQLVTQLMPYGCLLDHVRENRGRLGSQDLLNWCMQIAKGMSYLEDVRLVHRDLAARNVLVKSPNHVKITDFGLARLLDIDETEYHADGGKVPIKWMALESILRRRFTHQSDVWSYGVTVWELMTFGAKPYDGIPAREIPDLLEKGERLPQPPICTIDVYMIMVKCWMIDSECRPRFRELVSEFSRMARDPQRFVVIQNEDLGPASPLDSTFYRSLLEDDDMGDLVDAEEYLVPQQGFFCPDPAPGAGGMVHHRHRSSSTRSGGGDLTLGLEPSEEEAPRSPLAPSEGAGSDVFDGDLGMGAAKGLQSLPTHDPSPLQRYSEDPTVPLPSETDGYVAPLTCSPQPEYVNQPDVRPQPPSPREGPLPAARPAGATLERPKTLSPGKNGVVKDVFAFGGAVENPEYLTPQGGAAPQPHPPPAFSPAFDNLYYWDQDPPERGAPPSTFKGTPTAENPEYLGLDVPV
EGFR(D770_N771insSVD) expressing Ba/F3 stable cell line, sequence (P00533 with tags, fused parts or gaps DUP768-770): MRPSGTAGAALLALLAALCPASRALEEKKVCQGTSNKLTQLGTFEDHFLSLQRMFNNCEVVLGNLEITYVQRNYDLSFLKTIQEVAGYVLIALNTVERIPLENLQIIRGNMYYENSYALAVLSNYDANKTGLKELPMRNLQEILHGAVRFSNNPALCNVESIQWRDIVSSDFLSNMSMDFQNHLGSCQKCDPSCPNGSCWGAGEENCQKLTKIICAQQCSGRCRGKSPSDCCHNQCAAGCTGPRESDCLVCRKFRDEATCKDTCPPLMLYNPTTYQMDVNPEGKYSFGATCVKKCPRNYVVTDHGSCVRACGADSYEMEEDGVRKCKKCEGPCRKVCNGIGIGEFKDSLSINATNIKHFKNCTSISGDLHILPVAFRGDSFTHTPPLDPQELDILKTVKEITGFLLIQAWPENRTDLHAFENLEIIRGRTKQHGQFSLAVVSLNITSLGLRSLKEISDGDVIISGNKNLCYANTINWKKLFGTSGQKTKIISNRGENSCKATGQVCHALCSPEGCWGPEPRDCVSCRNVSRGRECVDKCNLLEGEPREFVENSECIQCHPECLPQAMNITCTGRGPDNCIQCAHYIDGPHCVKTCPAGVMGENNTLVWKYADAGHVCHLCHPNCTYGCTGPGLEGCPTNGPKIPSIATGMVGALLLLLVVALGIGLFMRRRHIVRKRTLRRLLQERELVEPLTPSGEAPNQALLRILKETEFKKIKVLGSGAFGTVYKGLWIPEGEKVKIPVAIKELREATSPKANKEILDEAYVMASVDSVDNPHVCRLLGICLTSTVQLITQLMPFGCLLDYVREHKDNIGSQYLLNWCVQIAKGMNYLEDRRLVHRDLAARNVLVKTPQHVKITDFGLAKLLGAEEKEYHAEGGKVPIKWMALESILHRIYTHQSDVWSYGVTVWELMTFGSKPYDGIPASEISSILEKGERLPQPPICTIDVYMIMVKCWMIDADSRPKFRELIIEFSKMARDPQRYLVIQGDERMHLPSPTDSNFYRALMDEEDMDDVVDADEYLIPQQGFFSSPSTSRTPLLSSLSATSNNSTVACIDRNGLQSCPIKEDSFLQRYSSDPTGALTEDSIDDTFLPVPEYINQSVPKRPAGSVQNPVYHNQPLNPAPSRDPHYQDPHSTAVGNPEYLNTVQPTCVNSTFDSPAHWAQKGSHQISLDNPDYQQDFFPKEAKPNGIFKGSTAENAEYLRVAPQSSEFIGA
EGFR (A767_dupASV) expressing Ba/F3 stable cell line, sequence (P00533 with tags, fused parts or gaps DUP767-769): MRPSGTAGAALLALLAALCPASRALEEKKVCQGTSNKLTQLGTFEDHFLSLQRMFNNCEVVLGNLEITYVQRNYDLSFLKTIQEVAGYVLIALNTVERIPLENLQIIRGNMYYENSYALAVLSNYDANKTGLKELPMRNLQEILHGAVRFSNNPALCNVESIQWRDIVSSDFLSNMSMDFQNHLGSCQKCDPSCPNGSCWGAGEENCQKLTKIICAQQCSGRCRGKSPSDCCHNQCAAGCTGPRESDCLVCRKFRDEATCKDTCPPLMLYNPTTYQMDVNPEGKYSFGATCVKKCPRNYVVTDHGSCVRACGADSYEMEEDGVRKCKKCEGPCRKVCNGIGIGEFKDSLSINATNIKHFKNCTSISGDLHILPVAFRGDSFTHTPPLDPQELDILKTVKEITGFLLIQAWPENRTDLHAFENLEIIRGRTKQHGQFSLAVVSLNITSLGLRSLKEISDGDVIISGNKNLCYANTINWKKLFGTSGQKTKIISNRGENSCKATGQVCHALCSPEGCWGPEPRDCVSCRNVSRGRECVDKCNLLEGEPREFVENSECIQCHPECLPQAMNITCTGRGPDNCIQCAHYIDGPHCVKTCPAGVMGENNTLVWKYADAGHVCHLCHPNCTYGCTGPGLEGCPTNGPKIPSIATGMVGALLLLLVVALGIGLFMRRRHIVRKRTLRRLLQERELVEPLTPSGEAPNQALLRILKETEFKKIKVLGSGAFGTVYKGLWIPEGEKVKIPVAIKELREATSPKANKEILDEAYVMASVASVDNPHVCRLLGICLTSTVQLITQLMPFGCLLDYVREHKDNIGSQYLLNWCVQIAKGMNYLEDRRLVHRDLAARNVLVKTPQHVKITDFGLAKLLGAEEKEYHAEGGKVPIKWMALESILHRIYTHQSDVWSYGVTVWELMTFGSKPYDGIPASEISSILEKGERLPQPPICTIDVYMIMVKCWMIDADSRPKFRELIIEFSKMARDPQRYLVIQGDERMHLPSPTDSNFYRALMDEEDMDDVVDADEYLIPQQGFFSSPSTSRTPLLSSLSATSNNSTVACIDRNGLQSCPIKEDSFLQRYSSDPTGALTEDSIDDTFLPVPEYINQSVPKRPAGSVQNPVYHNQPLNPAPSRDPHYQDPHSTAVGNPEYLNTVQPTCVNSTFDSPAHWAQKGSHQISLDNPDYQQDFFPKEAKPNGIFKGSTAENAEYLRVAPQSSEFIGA
EGFR (H773insNPH) expressing Ba/F3 stable cell line, sequence (P00533 with tags, fused parts or gaps DUP771-773): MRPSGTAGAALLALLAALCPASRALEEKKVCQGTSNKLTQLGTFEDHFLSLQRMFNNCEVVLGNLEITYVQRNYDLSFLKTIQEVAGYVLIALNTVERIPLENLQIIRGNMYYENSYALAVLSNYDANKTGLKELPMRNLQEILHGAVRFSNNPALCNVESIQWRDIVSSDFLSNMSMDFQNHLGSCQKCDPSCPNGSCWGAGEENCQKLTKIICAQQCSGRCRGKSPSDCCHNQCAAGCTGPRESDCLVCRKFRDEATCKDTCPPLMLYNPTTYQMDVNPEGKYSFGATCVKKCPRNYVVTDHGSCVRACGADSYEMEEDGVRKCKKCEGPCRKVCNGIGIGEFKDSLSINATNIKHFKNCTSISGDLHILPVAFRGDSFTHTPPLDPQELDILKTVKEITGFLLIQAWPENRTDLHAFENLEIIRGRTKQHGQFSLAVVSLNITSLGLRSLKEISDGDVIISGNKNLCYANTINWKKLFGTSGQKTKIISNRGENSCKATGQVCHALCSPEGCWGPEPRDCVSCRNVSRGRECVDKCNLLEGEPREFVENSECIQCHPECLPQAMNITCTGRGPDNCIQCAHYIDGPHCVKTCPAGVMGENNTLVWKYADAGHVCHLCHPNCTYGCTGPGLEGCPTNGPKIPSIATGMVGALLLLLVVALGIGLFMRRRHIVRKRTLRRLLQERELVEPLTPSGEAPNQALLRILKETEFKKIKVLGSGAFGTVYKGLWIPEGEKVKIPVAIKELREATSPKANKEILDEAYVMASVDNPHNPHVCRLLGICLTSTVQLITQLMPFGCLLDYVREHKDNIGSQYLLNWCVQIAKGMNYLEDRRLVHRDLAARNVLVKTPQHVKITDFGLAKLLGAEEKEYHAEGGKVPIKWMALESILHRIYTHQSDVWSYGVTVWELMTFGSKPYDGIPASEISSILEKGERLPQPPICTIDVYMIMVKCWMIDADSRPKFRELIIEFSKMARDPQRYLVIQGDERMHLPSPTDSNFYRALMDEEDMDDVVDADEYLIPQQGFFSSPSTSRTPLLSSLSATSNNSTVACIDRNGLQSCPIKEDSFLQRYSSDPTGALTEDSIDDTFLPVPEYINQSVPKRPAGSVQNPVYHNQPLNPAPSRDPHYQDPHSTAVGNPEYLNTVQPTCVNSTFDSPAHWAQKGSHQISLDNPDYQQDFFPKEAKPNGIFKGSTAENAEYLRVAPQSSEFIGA

Structure (SMILES) | GI50 ([1]; 72 hr, read-out: A767 IC50) [nM] | GI50 ([2]; 72 hr, read-out: NPH IC50) [nM] | GI50 ([3]; 72 hr, read-out: D770 IC50) [nM] | IC50 (A431 cells; A431 cells, 72 hr, Alamar Blue) [nM] | GI50 [4, 5] [nM] | GI50 ([1]; read-out: A767 IC50, 72 hr) [nM] | GI50 ([2]; read-out: NPH IC50, 72 hr) [nM] | GI50 ([3]; read-out: D770 IC50, 72 hr) [nM] | IC50 (A431 cells) [nM] | GI50 ([4]; her2 (a775_g776insyvma) expressing ba/f3 stable cell line) [nM]
C=CC(=O)Nc1ccc(F)c(Nc2nc(Nc3cnn(C)c3)ncc2-c2ccc(OC)c(F)c2)c1 [Compound 1, N-(4-fluoro-3-((5-(3-fluoro-4-methoxyphenyl)-2-((1-methyl-1H-pyrazol-4-yl)amino)pyrimidin-4-yl)amino)phenyl)acrylamide] | 36 | 36 | 36 | 269 | 91 | – | – | – | – | –
C=CC(=O)Nc1ccc(F)c(Nc2nc(Nc3cnn(C)c3)ncc2-c2ccc(C(F)(F)F)cc2F)c1 [Compound 21, N-(4-fluoro-3-((5-(2-fluoro-4-(trifluoromethyl)phenyl)-2-((1-methyl-1H-pyrazol-4-yl)amino)pyrimidin-4-yl)amino)phenyl)acrylamide] | 181 | 261 | 107 | > 10000 | 1030 | – | – | – | – | –
C=CC(=O)Nc1cccc(Nc2nc(Nc3cnn(C)c3)ncc2-c2ccc(F)c(F)c2)c1 [Compound 67, N-(3-((5-(3,4-difluorophenyl)-2-((1-methyl-1H-pyrazol-4-yl)amino)pyrimidin-4-yl)amino)phenyl)acrylamide] | 41 | 100 | 36 | 213 | 60 | – | – | – | – | –
C=CC(=O)Nc1ccc(F)c(Nc2nc(Nc3cnn(C)c3)ncc2-c2ccc(Cl)c(Br)c2)c1 [Compound 90, N-(3-((5-(3-bromo-4-chlorophenyl)-2-((1-methyl-1H-pyrazol-4-yl)amino)pyrimidin-4-yl)amino)-4-fluorophenyl)acrylamide] | 122 | 156 | 100 | 185 | 164 | – | – | – | – | –
C=CC(=O)Nc1ccc(F)c(Nc2nc(Nc3cnn(C4COC4)c3)ncc2-c2ccc(F)c(Cl)c2)c1 [Compound 53, N-(3-((5-(3-chloro-4-fluorophenyl)-2-((1-(oxetan-3-yl)-1H-pyrazol-4-yl)amino)pyrimidin-4-yl)amino)-4-fluorophenyl)acrylamide] | 119 | 153 | 104 | 1220 | 211 | – | – | – | – | –
C=CC(=O)Nc1ccc(F)c(Nc2nc(Nc3cnn(C)c3)ncc2-c2cc(F)cc(OC)c2)c1 [Compound 65, N-(4-fluoro-3-{[5-(3-fluoro-5-methoxyphenyl)-2-[(1-methyl-1H-pyrazol-4-yl)amino]pyrimidin-4-yl]amino}phenyl)prop-2-enamide] | 226 | 304 | 114 | 1070 | 112 | – | – | – | – | –
C=CC(=O)Nc1ccc(F)c(Nc2nc(Nc3cnn(C)c3)ncc2-c2ccc(C(F)F)c(F)c2)c1 [Compound 37, N-(3-((5-(4-(difluoromethyl)-3-fluorophenyl)-2-((1-methyl-1H-pyrazol-4-yl)amino)pyrimidin-4-yl)amino)-4-fluorophenyl)acrylamide] | 34 | 51 | 30 | 51 | 93 | – | – | – | – | –
C=CC(=O)Nc1ccc(F)c(Nc2nc(Nc3cnn(CCN(C)C)c3)ncc2-c2ccc(F)c(Cl)c2)c1 [Compound 57, N-(3-((5-(3-chloro-4-fluorophenyl)-2-((1-(2-(dimethylamino)ethyl)-1H-pyrazol-4-yl)amino)pyrimidin-4-yl)amino)-4-fluorophenyl)acrylamide] | – | – | – | – | – | 207 | 62 | 111 | 699 | 112
C=CC(=O)Nc1ccc(F)c(Nc2nc(Nc3cnn(C)c3)ncc2-c2ccc(N(C)C)c(F)c2)c1 [Compound 28, N-(3-((5-(4-(dimethylamino)-3-fluorophenyl)-2-((1-methyl-1H-pyrazol-4-yl)amino)pyrimidin-4-yl)amino)-4-fluorophenyl)acrylamide] | 27 | 47 | 29 | 193 | 271 | – | – | – | – | –
C=CC(=O)Nc1ccc(F)c(Nc2nc(Nc3cnn(C)c3)ncc2-c2cc(F)cc(C(F)F)c2)c1 [Compound 15, N-(3-((5-(3-(difluoromethyl)-5-fluorophenyl)-2-((1-methyl-1H-pyrazol-4-yl)amino)pyrimidin-4-yl)amino)-4-fluorophenyl)acrylamide] | 45 | 102 | 36 | 84 | 124 | – | – | – | – | –

Continued, in another order:

GI50 ([1]; 72 hr, read-out: A767 IC50) [nM] | GI50 ([2]; 72 hr, read-out: NPH IC50) [nM] | GI50 ([3]; 72 hr, read-out: D770 IC50) [nM] | IC50 (A431 cells; A431 cells, 72 hr, Alamar Blue) [nM] | GI50 [4, 5] [nM] | Structure (SMILES) | GI50 ([1]; read-out: A767 IC50, 72 hr) [nM] | GI50 ([2]; read-out: NPH IC50, 72 hr) [nM] | GI50 ([3]; read-out: D770 IC50, 72 hr) [nM] | IC50 (A431 cells) [nM] | GI50 ([4]; her2 (a775_g776insyvma) expressing ba/f3 stable cell line) [nM]
42 | 79 | 28 | 147 | 114 | C=CC(=O)Nc1ccc(F)c(Nc2nc(Nc3cnn(C)c3)ncc2-c2ccc(C)c(F)c2)c1 [Compound 13, N-(4-fluoro-3-((5-(3-fluoro-4-methylphenyl)-2-((1-methyl-1H-pyrazol-4-yl)amino)pyrimidin-4-yl)amino)phenyl)acrylamide] | – | – | – | – | –
41 | 24 | 35 | 707 | 84 | C=CC(=O)Nc1cccc(Nc2nc(Nc3cnn(C)c3)ncc2-c2cc(F)cc(C(F)F)c2)c1 [Compound 43, N-(3-((5-(3-(difluoromethyl)-5-fluorophenyl)-2-((1-methyl-1H-pyrazol-4-yl)amino)pyrimidin-4-yl)amino)phenyl)acrylamide] | – | – | – | – | –
26 | 14 | 15 | 55 | 47 | C=CC(=O)Nc1cccc(Nc2nc(Nc3cnn(C)c3)ncc2-c2cc(F)cc(Cl)c2)c1 [Compound 66, N-(3-((5-(3-chloro-5-fluorophenyl)-2-((1-methyl-1H-pyrazol-4-yl)amino)pyrimidin-4-yl)amino)phenyl)acrylamide] | – | – | – | – | –
34 | 20 | 21 | 46 | 25 | C=CC(=O)Nc1ccc(F)c(Nc2nc(Nc3cnn(C)c3)ncc2-c2cnc(F)c(C(F)(F)F)c2)c1 [Compound 47, N-(4-fluoro-3-((5-(6-fluoro-5-(trifluoromethyl)pyridin-3-yl)-2-((1-methyl-1H-pyrazol-4-yl)amino)pyrimidin-4-yl)amino)phenyl)acrylamide] | – | – | – | – | –
257 | 214 | 130 | 85 | 100 | C=CC(=O)Nc1ccc(F)c(Nc2nc(Nc3cnn(CCN(C)C)c3)ncc2-c2ccc(Cl)c(Cl)c2)c1 [Compound 58, N-(3-((5-(3,4-dichlorophenyl)-2-((1-(2-(dimethylamino)ethyl)-1H-pyrazol-4-yl)amino)pyrimidin-4-yl)amino)-4-fluorophenyl)acrylamide] | – | – | – | – | –
80 | 91 | 75 | 1000 | 103 | C=CC(=O)Nc1ccc(F)c(Nc2nc(Nc3cnn(CCO)c3)ncc2-c2ccc(F)c(Cl)c2)c1 [Compound 62, N-(3-((5-(3-chloro-4-fluorophenyl)-2-((1-(2-hydroxyethyl)-1H-pyrazol-4-yl)amino)pyrimidin-4-yl)amino)-4-fluorophenyl)acrylamide] | – | – | – | – | –
34 | 92 | 50 | 582 | 94 | C=CC(=O)Nc1ccc(F)c(Nc2nc(Nc3cnn(C)c3)ncc2-c2cnc(OC)c(Cl)c2)c1 [Compound 31, N-(3-((5-(5-chloro-6-methoxypyridin-3-yl)-2-((1-methyl-1H-pyrazol-4-yl)amino)pyrimidin-4-yl)amino)-4-fluorophenyl)acrylamide trifluoroacetate] | – | – | – | – | –
104 | 95 | 61 | 554 | 159 | C=CC(=O)Nc1ccc(F)c(Nc2nc(Nc3cnn(C)c3)ncc2-c2cc(C)cc(F)c2)c1 [Compound 64, N-(4-fluoro-3-((5-(3-fluoro-5-methylphenyl)-2-((1-methyl-1H-pyrazol-4-yl)amino)pyrimidin-4-yl)amino)phenyl)acrylamide] | – | – | – | – | –
35 | 31 | 27 | 443 | 112 | C=CC(=O)Nc1ccc(F)c(Nc2nc(Nc3cnn(C)c3)ncc2-c2cc(F)cc(F)c2)c1 [Compound 26, N-(3-((5-(3,5-difluorophenyl)-2-((1-methyl-1H-pyrazol-4-yl)amino)pyrimidin-4-yl)amino)-4-fluorophenyl)acrylamide] | – | – | – | – | –
